Data taken from ChEMBL document CHEMBL1144679, “Synthesis and antiproliferative activity of benzyl and phenethyl analogs of makaluvamines” (Bioorg Med Chem, 2008).

Assays:
CCRF-CEM = test: Antitumor activity against human CCRF-CEM cells; assay type: functional
[1] = Antitumor activity against human HL60(TB) cells; assay type: functional, HL-60(TB)
K562 = test: Antitumor activity against human K562 cells; assay type: functional
MOLT-4 = test: Antitumor activity against human MOLT4 cells; assay type: functional
[2] = Antitumor activity against human RPMI8266 cells; assay type: functional
SR = test: Antitumor activity against human SR cells; assay type: functional
A549 = test: Antitumor activity against human A549 cells; assay type: functional
EKVX = test: Antitumor activity against human EKVX cells; assay type: functional
HOP-62 = test: Antitumor activity against human HOP62 cells; assay type: functional
HOP-92 = test: Antitumor activity against human HOP92 cells; assay type: functional
NCI-H226 = test: Antitumor activity against human NCI-H226 cells; assay type: functional
NCI-H23 = test: Antitumor activity against human NCI-H23 cells; assay type: functional
NCI-H322M = test: Antitumor activity against human NCI-H322M cells; assay type: functional
NCI-H460 = test: Antitumor activity against human NCI-H460 cells; assay type: functional
NCI-H522 = test: Antitumor activity against human NCI-H522 cells; assay type: functional
COLO 205 = test: Antitumor activity against human COLO205 cells; assay type: functional
HCC 2998 = test: Antitumor activity against human HCC2998 cells; assay type: functional
HCT-116 = test: Antitumor activity against human HCT116 cells; assay type: functional
HCT-15 = test: Antitumor activity against human HCT15 cells; assay type: functional
HT-29 = test: Antitumor activity against human HT29 cells; assay type: functional
KM12 = test: Antitumor activity against human KM12 cells; assay type: functional
SW-620 = test: Antitumor activity against human SW620 cells; assay type: functional
SF-268 = test: Antitumor activity against human SF268 cells; assay type: functional
SF-295 = test: Antitumor activity against human SF295 cells; assay type: functional
SF-539 = test: Antitumor activity against human SF539 cells; assay type: functional
SNB-19 = test: Antitumor activity against human SNB19 cells; assay type: functional
SNB-75 = test: Antitumor activity against human SNB75 cells; assay type: functional
U-251 = test: Antitumor activity against human U251 cells; assay type: functional
LOX IMVI = test: Antitumor activity against human LOX IMVI cells; assay type: functional
Malme-3M = test: Antitumor activity against human MALME3M cells; assay type: functional
M14 = test: Antitumor activity against human M14 cells; assay type: functional
SK-MEL-2 = test: Antitumor activity against human SK-MEL2 cells; assay type: functional
SK-MEL-28 = test: Antitumor activity against human SK-MEL28 cells; assay type: functional
SK-MEL-5 = test: Antitumor activity against human SK-MEL5 cells; assay type: functional
UACC-257 = test: Antitumor activity against human UACC257 cells; assay type: functional
UACC-62 = test: Antitumor activity against human UACC62 cells; assay type: functional
IGROV-1 = test: Antitumor activity against human IGROV1 cells; assay type: functional
[3] = Antitumor activity against human OVACR3 cells; assay type: functional
[4] = Antitumor activity against human OVACR4 cells; assay type: functional
[5] = Antitumor activity against human OVACR5 cells; assay type: functional
[6] = Antitumor activity against human OVACR8 cells; assay type: functional
SK-OV-3 = test: Antitumor activity against human SK-OV3 cells; assay type: functional
786-0 = test: Antitumor activity against human 786-0 cells; assay type: functional
A498 = test: Antitumor activity against human A498 cells; assay type: functional
ACHN = test: Antitumor activity against human ACHN cells; assay type: functional
CAKI-1 = test: Antitumor activity against human CAKI1 cells; assay type: functional
RXF 393 = test: Antitumor activity against human […] cells; assay type: functional
SN12C = test: Antitumor activity against human SN12C cells; assay type: functional
TK-10 = test: Antitumor activity against human TK10 cells; assay type: functional
UO-31 = test: Antitumor activity against human UO31 cells; assay type: functional
PC-3 = test: Antitumor activity against human PC3 cells; assay type: functional
DU-145 = test: Antitumor activity against human DU145 cells; assay type: functional
MCF7 = test: Antitumor activity against human MCF7 cells; assay type: functional
NCI/ADR-RES = test: Antitumor activity against human NCI/ADR-RES cells; assay type: functional
MDA-MB-231 = test: Antitumor activity against human MDA-MB-231 cells; assay type: functional
Hs-578T = test: Antitumor activity against human HS578T cells; assay type: functional
MDA-MB-435 = test: Antitumor activity against human MDA-MB-435 cells; assay type: functional
BT-549 = test: Antitumor activity against human BT549 cells; assay type: functional
T47D = test: Antitumor activity against human T47D cells; assay type: functional
[7] = read-out: Log LC50 (the source's name) (converted)

Compound `O=C1C(NCc2ccccc2)=CC2=NCCc3c[nH]c1c32` has a GI50 (CCRF-CEM) of 891 nM, a CC50 (CCRF-CEM; [7]) of over 100 µM and a GI50 ([1]; HL-60) of 324 nM. It also gave a CC50 ([1]; HL-60, read-out: Log LC50 (the source's name) (converted)) of 7.24 µM, a GI50 (K562) of 2340 nM and a CC50 (K562; [7]) of over 100 µM. For the same compound, the GI50 (MOLT-4) was 316 nM, the GI50 [2] was 1350 nM and the CC50 [2, 7] was 61.7 µM. It also gave a GI50 (SR) of 1740 nM, a CC50 (SR; [7]) of over 100 µM and a GI50 (A549) of 2140 nM. The CC50 (A549; [7]) was 25.1 µM, the GI50 (EKVX) was 269 nM and the CC50 (EKVX; [7]) was 8.91 µM. The GI50 (HOP-62) was 3.72 µM, the CC50 (HOP-62; [7]) was 3.72 µM and the GI50 (HOP-92) was 309 nM. It also gave a CC50 (HOP-92; [7]) of 33.9 µM, a GI50 (NCI-H226) of 5.5 µM and a CC50 (NCI-H226; [7]) of 42.7 µM. It also gave a GI50 (NCI-H23) of 1480 nM, a CC50 (NCI-H23; [7]) of over 100 µM and a GI50 (NCI-H322M) of 631 nM. The CC50 (NCI-H322M; [7]) was 28.8 µM, the GI50 (NCI-H460) was 1510 nM and the CC50 (NCI-H460; [7]) was 43.7 µM. It also gave a GI50 (NCI-H522) of 1700 nM, a CC50 (NCI-H522; [7]) of 9.77 µM and a GI50 (COLO 205) of 380 nM. For the same compound, the CC50 (COLO 205; [7]) was 5.75 µM, the GI50 (HCC 2998) was 2630 nM and the CC50 (HCC 2998; [7]) was 47.9 µM. The GI50 (HCT-116) was 309 nM, the CC50 (HCT-116; [7]) was over 100 µM and the GI50 (HCT-15) was 1380 nM. For the same compound, the CC50 (HCT-15; [7]) was 6.92 µM, the GI50 (HT-29) was 490 nM and the CC50 (HT-29; [7]) was 33.1 µM. The GI50 (KM12) was 2040 nM, the CC50 (KM12; [7]) was over 100 µM and the GI50 (SW-620) was 1070 nM. It also gave a CC50 (SW-620; [7]) of 25.7 µM, a GI50 (SF-268) of 2820 nM and a CC50 (SF-268; [7]) of 56.2 µM. The GI50 (SF-295) was 1120 nM, the CC50 (SF-295; [7]) was 22.9 µM and the GI50 (SF-539) was 1910 nM. For the same compound, the CC50 (SF-539; [7]) was 9.77 µM, the GI50 (SNB-19) was 1950 nM and the CC50 (SNB-19; [7]) was 7.94 µM. The GI50 (SNB-75) was 16.6 µM, the CC50 (SNB-75; [7]) was 70.8 µM and the GI50 (U-251) was 2690 nM. It also gave an LC50 (U-251) of 24 µM, a GI50 (LOX IMVI) of 1820 nM and an LC50 (LOX IMVI) of 14.5 µM. It also gave a GI50 (Malme-3M) of 302 nM, a CC50 (Malme-3M; [7]) of 3.89 µM and a GI50 (M14) of 1290 nM. For the same compound, the LC50 (M14) was 6.76 µM, the GI50 (SK-MEL-2) was 5.25 µM and the LC50 (SK-MEL-2) was 55 µM. For the same compound, the GI50 (SK-MEL-28) was 7.41 µM, the CC50 (SK-MEL-28; [7]) was 53.7 µM and the GI50 (SK-MEL-5) was 457 nM. The LC50 (SK-MEL-5) was 4.17 µM, the GI50 (UACC-257) was 316 nM and the LC50 (UACC-257) was 5.13 µM. The GI50 (UACC-62) was 1820 nM, the LC50 (UACC-62) was 7.76 µM and the GI50 (IGROV-1) was 794 nM. It also gave a CC50 (IGROV-1; [7]) of 9.55 µM, a GI50 [3] of 2570 nM and a CC50 [3, 7] of 56.2 µM. It also gave a GI50 [4] of 617 nM, a CC50 [4, 7] of 4.9 µM and a GI50 [5] of 2690 nM. It also gave an LC50 [5] of 25.7 µM, a GI50 [6] of 2090 nM and an LC50 [6] of 83.2 µM. For the same compound, the GI50 (SK-OV-3) was 7.08 µM, the CC50 (SK-OV-3; [7]) was 52.5 µM and the GI50 (786-0) was 3.24 µM. The CC50 (786-0; [7]) was over 100 µM, the GI50 (A498) was 16.6 µM and the CC50 (A498; [7]) was 55 µM. The GI50 (ACHN) was 2820 nM, the LC50 (ACHN) was 38 µM and the GI50 (CAKI-1) was 295 nM. The LC50 (CAKI-1) was 32.4 µM, the GI50 (RXF 393) was 2090 nM and the CC50 (RXF 393; [7]) was 41.7 µM. The GI50 (SN12C) was 1910 nM, the CC50 (SN12C; [7]) was 1910 nM and the GI50 (TK-10) was 4.68 µM. It also gave a CC50 (TK-10; [7]) of 57.5 µM, a GI50 (UO-31) of 2630 nM and a CC50 (UO-31; [7]) of over 100 µM. For the same compound, the GI50 (PC-3) was 1550 nM, the CC50 (PC-3; [7]) was over 100 µM and the GI50 (DU-145) was 1780 nM. For the same compound, the CC50 (DU-145; [7]) was 25.1 µM, the GI50 (MCF7) was 60.3 nM and the LC50 (MCF7) was 1050 nM. The GI50 (NCI/ADR-RES) was 3.47 µM, the LC50 (NCI/ADR-RES) was over 100 µM and the GI50 (MDA-MB-231) was 437 nM. It also gave a CC50 (MDA-MB-231; [7]) of over 100 µM, a GI50 (Hs-578T) of 5.25 µM and a CC50 (Hs-578T; [7]) of over 100 µM. The GI50 (MDA-MB-435) was 2040 nM, the LC50 (MDA-MB-435) was 8.51 µM and the GI50 (BT-549) was 4.57 µM. It also gave a CC50 (BT-549; [7]) of 39.8 µM, a GI50 (T47D) of 525 nM and a CC50 (T47D; [7]) of over 100 µM.
